{"source": "patent US7163960B2", "about": "“Treatment and prevention of inflammatory disorders” (Monsanto Technology L.L.C., priority 2002, dated 2007)", "key": {"prostaglandin E2 (PGE2)": {"system": "prostaglandin E2 (PGE2)", "assay": "PGE2 synthesis in LPS-stimulated whole blood", "type": "in vivo, human", "details": "for PGE2 synthesis in LPS-stimulated whole blood: mean ± SD", "method": "(§1) Following a 3-week run-in period, subjects ingested either ALA, SDA, EPA supplied as ethyl esters in capsules. Intakes were 0.75 g/day for 3 weeks followed by 1.5 g/day for the subsequent 3 weeks.\n(§2) Blood (4 mL) was added to heparinised tubes, bacterial lipopolysaccharide (LPS) was added (200 ng/mL), and the mixture was incubated at 37° C., 5% CO2, for 24 h. Plasma was collected and assayed for prostaglandin E2 (PGE2) by radioimmunoassay (RIA), interleukin-1β (IL-1β) and tumor necrosis factor-α (TNF-α) by ELISA, as described in Mantzioris et al., supra."}, "IL-1β": {"system": "IL-1β", "assay": "IL-1β synthesis in LPS-treated whole blood", "type": "in vivo, human", "details": "for IL-1β synthesis in LPS-treated whole blood: mean ± SD", "method": "as §1, §2"}, "leukotrienes": {"system": "leukotrienes", "details": "U.S. Pat. No. 5,158,975; cited from earlier work"}, "[1]": {"assay": "Fatty acid analysis of blood cell phospholipids and plasma lipid fractions after ingestion of test fatty acids", "type": "in vivo, human", "from_the_text": "(§3) 45 males and post-menopausal female—19–65 years of age, normolipidemic, and with a body mass index (BMI) in the range 20 to 30, were recruited. Exclusion criteria included bleeding disorders, hypertension, inflammatory disorders, active gastrointestinal diseases, chronic use of low dose aspirin, consumption of restaurant or takeaway evening meals more than twice per week, use of dietary supplements rich in n-3 or n-6 fatty acids, habitual consumption of more than 1 fish meal per month, and plasma phospholipid EPA+DHA levels>7.9% of total fatty acids (level achieved in the study group was 4.9±1.0% of total fatty acids).\nas §1\nAt each visit, 36 mL of blood was taken by venepuncture after an overnight fast. Blood was aliquoted into various tubes for the following procedures.\nBlood (20 mL) was added to tubes containing 4 mL 4.5% EDTA in water and 4 mL—6% dextran in normal saline, pH 7.0. Erythrocytes were allowed to sediment under gravity at 37° C. for 30 min. The leucocyte-rich plasma was layered onto LYMPHOPREP, density 1.077 (Nycomed Pharma, Oslo) and centrifuged at 110 g for 10 min to separate leucocytes from the platelets, which were removed. The gradient was further centrifuged at 200 g for 20 min to separate the neutrophils from mononuclear cells, which were removed.\nSamples were processed for fatty acid analysis as described in Mantzioris et al., Am. J. Clin. Nutr., 72:42–8 (2000). Plasma, washed platelet and mononuclear cell pellets were stored at −80° C. Erythrocyte pellets were treated fresh with chloroform:isopropanol (2:1) and the lipid extracts stored at 4° C. Plasma, platelet and mononuclear cell pellets were extracted with chloroform:methanol. The cellular and plasma lipid extracts were fractionated by thin-layer chromatography. For the cellular extracts, the phospholipid fraction was retained and for the plasma extracts, the phospholipid, cholesterol ester, and triglyceride fractions were retained. These were transesterified by methanolysis (1% H2SO4 in methanol at 70° C. for 3 h). Fatty acid methyl esters were separated and quantified with a HEWLETT-PACKARD 6890 gas chromatograph equipped with a 50 m capillary column coated with BPX-70 (0.25 μm film thickness; SGE Pty Ltd, Victoria, Australia) (see Mantzioris et al., supra). Fatty acid standards were obtained from NuChek Prep Inc. (Elysian, Minn.) and included stearidonic acid obtained from Sigma Aldrich Pty Ltd. (Castle Hill, NSW, Australia). All organic solvents contained butylated hydroxy anisole (0.005%) as an antioxidant."}, "TNF-α": {"system": "TNF-α", "assay": "TNF-α synthesis in LPS-treated whole blood", "type": "in vivo, human", "details": "for TNF-α synthesis in LPS-treated whole blood: mean ± SD", "method": "as §1, §2"}, "C-reactive protein": {"system": "C-reactive protein", "assay": "Clinical study of SDA on down-regulating C-reactive protein", "type": "in vivo, human", "details": "Example 3, described in present tense; about 0.75 then 1.5 g/day", "from_the_text": "as §3, with “Approximately 35–50” for “45”, “female -19–65” for “female—19–65”, “are” for “were”, “include” for “included”, “acids. Subjects are randomly allocated to one” for “acids (level achieved in the study group was 4.9±1.0%”, “three groups, designated ALA, SDA, and EPA. […]” for “total fatty acids).”\nC-reactive protein (Hs-CRP) in plasma can be analyzed by use of latex-enhanced immunonephelometric assay on a BN II analyzer (Rifai et al. Clinical efficacy of an automated high-sensitivity C-reactive protein assay. Clin. Chem […];45:2136). […]\nSubjects are weighed at each visit for change in weight during the trial. […] Fatty acids are analyzed between dietary groups in EPA concentration in erythrocyte or plasma phospholipids. The effect of ingestion of EPA, ALA or SDA at 0.75 g/day (weeks 0 to 3) or 1.5 g/day (weeks 3 to 6) is determined with respect to EPA concentration in the phospholipid fractions of erythrocytes and plasma. Effects on DPA concentration in the phospholipid fractions of erythrocytes and plasma are also analyzed."}, "[2]": {"details": "Week 3 (after 0.75 g/day for 3 weeks)"}, "[3]": {"details": "Week 6 (after 1.5 g/day for 3 weeks)"}, "[4]": {"details": "Week −3 (start of run-in, before dosing)"}}, "note": "Entries after “also recorded” stand apart in the source; their conditions may differ. Marks after values point to notes of the source that are not given here."}
{"molecule": "CC/C=C\\C/C=C\\C/C=C\\C/C=C\\CCCCC(=O)O", "note": "[SDA, stearidonic acid]", "values": [{"measurement": "Effect on LPS-stimulated PGE2 synthesis", "setting": "prostaglandin E2 (PGE2); 1.5 g/day", "result": "no change"}, {"measurement": "Effect on LPS-stimulated PGE2 synthesis", "setting": "prostaglandin E2 (PGE2); Visit 3, following ingestion of 0.75 g", "result": "statistically significant increases"}, {"measurement": "PGE2 synthesis in LPS-stimulated whole blood", "setting": "prostaglandin E2 (PGE2); Week 0 (baseline)", "result": "*4.64 ± 1.09^a ng/mL"}, {"measurement": "PGE2 synthesis in LPS-stimulated whole blood", "setting": "prostaglandin E2 (PGE2); [2]", "result": "6.26 ± 2.56^b ng/mL"}, {"measurement": "PGE2 synthesis in LPS-stimulated whole blood", "setting": "prostaglandin E2 (PGE2); [3]", "result": "4.61 ± 0.95^a ng/mL"}, {"measurement": "PGE2 synthesis in LPS-stimulated whole blood", "setting": "prostaglandin E2 (PGE2); [4]", "result": "3.97 ± 1.48^a ng/mL"}, {"measurement": "Effect on LPS-stimulated IL-1β synthesis", "setting": "IL-1β; 0.75 g/day or 1.5 g/day (either dose)", "result": "significantly decreased"}, {"measurement": "IL-1β synthesis in LPS-treated whole blood", "setting": "IL-1β; Week 0 (baseline)", "result": "94.7 ± 29.3^b ng/mL"}, {"measurement": "IL-1β synthesis in LPS-treated whole blood", "setting": "IL-1β; [2]", "result": "81.4 ± 21.9^c ng/mL"}, {"measurement": "IL-1β synthesis in LPS-treated whole blood", "setting": "IL-1β; [3]", "result": "77.8 ± 26.4^c ng/mL"}, {"measurement": "IL-1β synthesis in LPS-treated whole blood", "setting": "IL-1β; [4]", "result": "106.9 ± 33.0^a ng/mL"}, {"measurement": "Effect on biosynthesis of leukotrienes", "setting": "leukotrienes", "result": "inhibit biosynthesis of leukotrienes"}, {"measurement": "Effect on EPA concentration in the phospholipid fractions of erythrocytes and plasma", "setting": "[1]; 0.75 g/day (weeks 0 to 3)", "result": "significantly increased"}, {"measurement": "Effect on DPA concentration in the phospholipid fractions of erythrocytes and plasma", "setting": "[1]; 1.5 g/day", "result": "significantly increased; also recorded: elevated"}, {"measurement": "Effect on EPA concentration in the phospholipid fractions of erythrocytes and plasma", "setting": "[1]; 1.5 g/day (weeks 3 to 6)", "result": "significantly increased; also recorded: elevated"}, {"measurement": "Effect on tissue levels of DHA (FIG. 1)", "setting": "[1]; erythrocytes and plasma phospholipids, 1.5 g/day", "result": "not DHA"}, {"measurement": "Efficiency relative to ALA at elevating tissue EPA levels", "setting": "[1]; in humans", "result": "about four times more efficient than ALA"}, {"measurement": "Effect on LPS-stimulated TNF synthesis", "setting": "TNF-α; 1.5 g/day", "result": "statistically significant decreases"}, {"measurement": "TNF-α synthesis in LPS-treated whole blood", "setting": "TNF-α; Week 0 (baseline)", "result": "43.7 ± 18.7^a ng/mL"}, {"measurement": "TNF-α synthesis in LPS-treated whole blood", "setting": "TNF-α; [2]", "result": "37.7 ± 14.2^ab ng/mL"}, {"measurement": "TNF-α synthesis in LPS-treated whole blood", "setting": "TNF-α; [3]", "result": "34.1 ± 12.0^b ng/mL"}, {"measurement": "TNF-α synthesis in LPS-treated whole blood", "setting": "TNF-α; [4]", "result": "37.6 ± 14.6^ab ng/mL"}, {"measurement": "Effect of SDA intake on C-reactive protein", "setting": "C-reactive protein", "result": "decrease in C-reactive protein"}]}
